Measurements published in US4845221A, “Serotonergic substituted piperazinyl tetralins” (American Home Products Corporation, priority 1988, dated 1989).
“Also recorded” adds a separate entry of the source.

How the values were obtained:
[1] = tested on: 5-HT1A serotonin receptor; settings: cited from earlier work
[2] = target: T1, 5-HT-1A serotonin receptor (Rattus norvegicus, UniProt P19327); test: displacement of [3H]8-OH DPAT from the 5-HT-1A serotonin receptor; type: binding; settings: for inhibition at 1 µM / Ki: [3H]8-OH DPAT; for inhibition at 1 µM: read-out: % Inhibition 1 μm 5 HT1A; for selectivity / separation of 5-HT1A vs D-2 binding (in words): 5-HT1A relative to D-2; for Ki: in parentheses after % inhibition, read-out: Ki 5 HT1A
T1 construct: 44: 1685-1696, 1985; from tissue
T1 sequence (P19327 1-422): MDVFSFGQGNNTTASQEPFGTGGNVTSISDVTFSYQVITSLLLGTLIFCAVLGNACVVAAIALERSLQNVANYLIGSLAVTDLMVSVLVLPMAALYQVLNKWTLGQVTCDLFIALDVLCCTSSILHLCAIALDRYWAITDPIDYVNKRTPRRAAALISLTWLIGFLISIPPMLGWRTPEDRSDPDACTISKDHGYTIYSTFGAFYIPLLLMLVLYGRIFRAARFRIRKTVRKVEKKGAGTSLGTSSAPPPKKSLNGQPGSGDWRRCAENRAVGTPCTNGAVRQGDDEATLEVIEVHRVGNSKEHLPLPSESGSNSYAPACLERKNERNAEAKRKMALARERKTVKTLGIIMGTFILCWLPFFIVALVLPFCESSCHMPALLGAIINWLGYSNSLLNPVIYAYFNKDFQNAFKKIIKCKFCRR
Source text: The serotonergic properties of the compounds of this invention were established by standard pharmacologically accepted procedures involving the measurement of the compound's ability to displace [^3 H]8-OH DPAT (dipropylaminotetralin) from the 5-HT-1A serotonin receptor by the procedure of Hall et al., J. Neurochem. 44: 1685-1696, 1985.

D-2 dopamine receptor = test: inhibition of 3H-spiroperidol binding, homogenized limbic brain tissue (D-2 dopamine receptor affinity); settings: for % Inhibition 1 μM D-2: 3H-spiroperidol, limbic brain tissue
Method: The relatively low D-2 dopamine receptor affinity of the compounds of this invention was established by a modification of the procedure of Fields et al., Brain Res., 136, pp. 578-584 (1977) and Yamamura et al., eds. Neurotransmitter Receptor Binding, Raven Press, N.Y. (1978), wherein homogenized limbic brain tissue is incubated with ^3 H-spiroperidol and various concentrations of test compound, filtered, washed and shaken with Hydrofluor scintillation cocktail (National Diagnostics) and counted in a Packard 460 CD scintillation counter.

[3] = tested on: 5-HT1A (a serotonin receptor subtype); settings: Middlemiss et al., European J. of Pharmacol. 90 151 (1983); cited from earlier work

| Compound | 5-HT1A receptor affinity of known agents (in words) [1] | 5-HT1A binding/affinity (in words) [2] | inhibition at 1 µM [2] | selectivity / separation of 5-HT1A vs D-2 binding (in words) [2] | D-2 dopamine receptor binding/affinity (in words) (D-2 dopamine receptor) | % Inhibition 1 μM D-2 (D-2 dopamine receptor) | 5-HT1A agonist activity (in words) [3] | Ki [2] |
| --- | --- | --- | --- | --- | --- | --- | --- | --- |
| O=C1c2ccccc2S(=O)(=O)N1CCCCN1CCN(c2ncccn2)CC1 [ipsapirone] | selective 5-HT1A serotonin receptor affinity | – | – | – | – | – | – | – |
| COc1ccc2c(c1)CCC(N1CCN(c3ncccn3)CC1)C2 (stereo not shown) [Compound 11] | – | marked reduction in 5-HT1A binding | 44% | – | – | – | – | – |
| COc1ccccc1N1CCN(C2CCc3cccc(OC)c3C2)CC1 (stereo not shown) [Compound 5] | – | almost complete loss of serotonin receptor agonism | 4% | reverses the selective activity | relatively high dopamine receptor binding | 72% | – | – |
| COc1ccc2c(c1)CC(N1CCN(c3ccccc3OC)CC1)CC2 (stereo not shown) [Compound 7] | – | – | 93% | – | higher D-2 binding | 65% | – | – |
| COc1ccc2c(c1)CC(N1CCN(c3cccc(C(F)(F)F)c3)CC1)CC2 (stereo not shown) [Compound 6] | – | reduced 5-HT1A agonism | 77% | unacceptable separation of properties | relative high dopamine receptor binding | 49% | – | – |
| O=C1CC2(CCCC2)CC(=O)N1CCCCN1CCN(c2ncccn2)CC1 [buspirone] | potent affinity; also recorded: selective 5-HT1A serotonin receptor affinity | – | – | – | – | – | – | – |
| CCCN(CCC)C1CCc2cccc(O)c2C1 (stereo not shown) [8-OH DPAT, 8-hydroxy-2-(di-n-propylamino)-tetralin] | selective 5-HT1A serotonin receptor affinity | – | – | – | – | – | selective 5-HT1A (a serotonin receptor subtype) agonist activity | – |
| COc1cccc2c1CC(N1CCN(c3ncccn3)CC1)CC2 (stereo not shown) [Compound 3, 2-[4-(1,2,3,4-tetrahydro-8-methoxy-2-naphthalenyl)-1-piperazinyl]pyrimidine] | – | – | 84.6% | – | – | 3% | – | 63 nM |
| Oc1ccc2c(c1)CCC(N1CCN(c3ncccn3)CC1)C2 (stereo not shown) [Compound 12] | – | negligible activity | 15% | – | negligible D-2 binding | 7% | – | – |
| Oc1ccc2c(c1)CCC(N1CCN(c3cccc(C(F)(F)F)c3)CC1)C2 (stereo not shown) [Compound 10] | – | – | 87% | – | which property was retained | 72% | – | – |
| COc1ccc2c(c1)CC(N1CCN(c3ncccn3)CC1)CC2 (stereo not shown) [Compound 8] | – | – | 83% | improved separation of properties with emphasis on 5-HT1A binding | – | 11% | – | – |
| COc1cccc2c1CC(N1CCN(c3cccc(C(F)(F)F)c3)CC1)CC2 (stereo not shown) [Compound 1, 1-(1,2,3,4-tetrahydro-8-methoxy-2-naphthalenyl)-4-[3-(trifluoromethyl)phenyl]piperazine] | – | – | 97% | – | – | 5% | – | 11 nM |
| COc1ccc2c(c1)CCC(N1CCN(c3cccc(C(F)(F)F)c3)CC1)C2 (stereo not shown) [Compound 9] | – | – | 97% | – | increased D- 2 binding markedly | 65% | – | – |
| CC1(C)CC(=O)N(CCCCN2CCN(c3ncccn3)CC2)C(=O)C1 [gepirone] | selective 5-HT1A serotonin receptor affinity | – | – | – | – | – | – | – |
| Oc1cccc2c1CC(N1CCN(c3cccc(C(F)(F)F)c3)CC1)CC2 (stereo not shown) [Compound 2, 1-(1,2,3,4-tetrahydro-8-hydroxy-2-naphthalenyl)-4-[3-(trifluromethyl)phenyl]piperazine] | – | – | 100% | – | – | 46% | – | 14 nM |
| Oc1cccc2c1CC(N1CCN(c3ncccn3)CC1)CC2 (stereo not shown) [Compound 4, 2-[4-(1,2,3,4-tetrahydro-8-hydroxy-2-naphthalenyl)-1-piperazinyl]pyrimidine] | – | – | 91% | most selective serotonin receptor binding | – | 0% | – | 109 nM |
